Source: patent US20250179040A1, “HISTAMINE H3 RECEPTOR ANTAGONISTS AND THEIR PHARMACEUTICAL USES” (HANGZHOU BIO-SINCERITY PHARMA-TECH CO., LTD., priority 2022, published 2025)

Legend:
[1] = biological target: hERG channel (Homo sapiens, UniProt Q12809); assay: in vitro; settings: Average inhibition rate (%) on hERG channel
Text: In cardiomyocytes, inhibition of the delayed rectifier potassium current (IKr) channel protein encoded by the human Ether-a-go-go Related Gene (hERG) is the most important mechanism by which drugs lead to prolongation of the QT interval. hERG is characterized by a specific molecular structure, which allows it to be inhibited by different structures, leading to severe arrhythmias. Statistically, 25-40% of lead compounds show varying degrees of hERG-related toxicity. Therefore, early evaluation of the effects of compounds on hERG is crucial in the drug development process.
The inhibition rate of compounds on hERG channels was examined by manual membrane clamp technique on HEK293 cell line which is stably expressing hERG ion channels.

[2] = biological target: histamine H3 receptor (Homo sapiens, UniProt Q9Y5N1); assay: FLPPR assay, antagonistic activity on histamine H3 receptor; format: cell-based; settings: for inhibition at 0.005 µM: read-out: % Inh-AVERAGE @ 5 nM; for inhibition at 0.05 µM: read-out: % Inh-AVERAGE @ 50 nM
Sequence of histamine H3 receptor (Q9Y5N1 whole entry, species assumed): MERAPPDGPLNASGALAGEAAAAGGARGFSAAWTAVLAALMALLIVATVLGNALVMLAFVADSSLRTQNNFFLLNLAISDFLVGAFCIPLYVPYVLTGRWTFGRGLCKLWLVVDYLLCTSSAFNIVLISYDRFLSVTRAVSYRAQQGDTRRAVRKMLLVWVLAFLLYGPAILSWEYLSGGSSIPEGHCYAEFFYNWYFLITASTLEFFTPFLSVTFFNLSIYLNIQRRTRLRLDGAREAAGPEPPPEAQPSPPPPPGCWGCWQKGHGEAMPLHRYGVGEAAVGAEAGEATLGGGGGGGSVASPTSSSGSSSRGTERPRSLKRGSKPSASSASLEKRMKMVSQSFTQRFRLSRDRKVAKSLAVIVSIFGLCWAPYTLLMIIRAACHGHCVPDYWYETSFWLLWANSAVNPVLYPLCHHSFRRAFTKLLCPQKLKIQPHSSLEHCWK
Procedure: The FLPPR assay (NIH Assay Guidance Manual: HTS Assay Validation-Section 4.3. Analysis (Potency), htpps://www.ncbi.nlm.nih.gov/books/NBK83783) was performed using SUVN-G3031 as a positive control, and 21 target compounds were tested for the antagonistic activity target to histamine H3 receptor.

Sequence of hERG channel (Q12809 whole entry): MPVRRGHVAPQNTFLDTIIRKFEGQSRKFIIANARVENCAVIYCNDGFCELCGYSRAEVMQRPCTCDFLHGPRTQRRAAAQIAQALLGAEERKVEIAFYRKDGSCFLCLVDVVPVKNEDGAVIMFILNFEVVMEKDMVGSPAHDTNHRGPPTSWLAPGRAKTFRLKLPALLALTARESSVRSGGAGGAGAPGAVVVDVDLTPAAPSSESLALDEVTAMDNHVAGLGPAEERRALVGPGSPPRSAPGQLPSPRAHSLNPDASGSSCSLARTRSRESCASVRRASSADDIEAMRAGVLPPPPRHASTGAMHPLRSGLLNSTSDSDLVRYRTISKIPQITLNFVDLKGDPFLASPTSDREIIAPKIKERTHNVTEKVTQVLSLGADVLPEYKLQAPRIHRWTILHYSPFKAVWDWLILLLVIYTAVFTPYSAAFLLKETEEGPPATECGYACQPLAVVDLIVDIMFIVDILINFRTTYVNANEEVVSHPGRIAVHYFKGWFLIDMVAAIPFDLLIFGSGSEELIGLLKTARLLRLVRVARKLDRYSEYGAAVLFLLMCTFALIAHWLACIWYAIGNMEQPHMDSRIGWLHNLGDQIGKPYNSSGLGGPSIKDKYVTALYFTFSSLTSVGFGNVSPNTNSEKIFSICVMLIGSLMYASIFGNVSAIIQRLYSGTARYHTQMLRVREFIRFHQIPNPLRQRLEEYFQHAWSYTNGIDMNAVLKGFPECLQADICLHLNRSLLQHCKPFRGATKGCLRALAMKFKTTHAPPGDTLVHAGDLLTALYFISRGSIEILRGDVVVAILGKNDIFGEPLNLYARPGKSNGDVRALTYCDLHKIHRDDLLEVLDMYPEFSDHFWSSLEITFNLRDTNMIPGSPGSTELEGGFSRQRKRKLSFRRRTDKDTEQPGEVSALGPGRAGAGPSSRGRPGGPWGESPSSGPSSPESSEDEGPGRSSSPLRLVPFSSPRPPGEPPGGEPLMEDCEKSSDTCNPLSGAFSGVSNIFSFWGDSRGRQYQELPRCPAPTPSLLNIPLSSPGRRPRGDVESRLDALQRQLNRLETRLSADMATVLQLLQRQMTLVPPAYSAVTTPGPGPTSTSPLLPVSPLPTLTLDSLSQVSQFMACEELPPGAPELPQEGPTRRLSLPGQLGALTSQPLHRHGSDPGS

Row | SMILES | inhibition at 10 µM [1] [%] | inhibition at 0.005 µM [2] [%] | inhibition at 0.05 µM [2] [%]
1 | O=C(CN1CCOCC1)Nc1ccc(OC2CC(N3CCCCC3)C2)cc1 (centres unmarked) [BIOS-B-1, 2-morpholino-N-(4-(3-(piperidin-1-yl)cyclobutoxy)phenyl)acetamide] | 8.54 | 91.7 | 100
2 | C[C@@H]1CCCN1CC(=O)Nc1ccc(OC2CC(N3CCCCC3)C2)cc1 (stereo partly drawn) [BIOS-B-2, (R)-2-(2-methylpyrrolidin-1-yl)-N-(4-(3-(piperidin-1-yl)cyclobutoxy)phenyl)acetamide] |  | 100 | 100
3 | O=C(CN1CCCCC1)Nc1ccc(OC2CC(N3CCCCC3)C2)cc1 (centres unmarked) [BIOS-B-3, 2-(piperidin-1-yl)-N-(4-(3-(piperidin-1-yl)cyclobutoxy)phenyl)acetamide] |  | 95.6 | 99.4
4 | CN1CCCN(CC(=O)Nc2ccc(OC3CC(N4CCCCC4)C3)cc2)CC1 (centres unmarked) [BIOS-B-4, 2-(4-methyl-1,4-diazepan-1-yl)-N-(4-(3-(piperidin-1-yl)cyclobutoxy)phenyl)acetamide] |  | 101 | 100
5 | O=C(CN1CCC(F)(F)CC1)Nc1ccc(OC2CC(N3CCCCC3)C2)cc1 (centres unmarked) [BIOS-B-5, 2-(4,4-difluoropiperidin-1-yl)-N-(4-(3-(piperidin-1-yl)cyclobutoxy)phenyl)acetamide] |  | 98.9 | 99.9
6 | O=C(CN1CCC(O)CC1)Nc1ccc(OC2CC(N3CCCCC3)C2)cc1 (centres unmarked) [BIOS-B-6, 2-(4-hydroxypiperidin-1-yl)-N-(4-(3-(piperidin-1-yl)cyclobutoxy)phenyl)acetamide] |  | 103 | 99.8
7 | O=C(CN1CCSCC1)Nc1ccc(OC2CC(N3CCCCC3)C2)cc1 (centres unmarked) [BIOS-B-7, N-(4-(3-(piperidin-1-yl)cyclobutoxy)phenyl)-2-thiomorpholinoacetamide] |  | 88.3 | 99.5
8 | O=C(CN1CCCC(CCO)C1)Nc1ccc(OC2CC(N3CCCCC3)C2)cc1 (centres unmarked) [BIOS-B-8, 2-(3-(2-hydroxyethyl)piperidin-1-yl)-N-(4-(3-(piperidin-1-yl)cyclobutoxy)phenyl)acetamide] | 4.82 | 101 | 99.5
9 | O=C(CN1CCNCC1)Nc1ccc(OC2CC(N3CCCCC3)C2)cc1 (centres unmarked) [BIOS-B-9, 2-(piperazin-1-yl)-N-(4-(3-(piperidin-1-yl)cyclobutoxy)phenyl)acetamide] | -1.03 | 101 | 99.6
10 | CN1CCN(CC(=O)Nc2ccc(OC3CC(N4CCCCC4)C3)cc2)CC1 (centres unmarked) [BIOS-B-10, 2-(4-methylpiperazin-1-yl)-N-(4-(3-(piperidin-1-yl)cyclobutoxy)phenyl)acetamide] | -1.26 | 99.5 | 97.5
11 | O=C(CN1CCCC(O)C1)Nc1ccc(OC2CC(N3CCCCC3)C2)cc1 (centres unmarked) [BIOS-B-11, 2-(3-hydroxypiperidin-1-yl)-N-(4-(3-(piperidin-1-yl)cyclobutoxy)phenyl)acetamide] | 2.96 | 97 | 99.4
12 | O=C(NCCN1CCOCC1)Nc1ccc(OC2CC(N3CCCCC3)C2)cc1 (centres unmarked) [BIOS-B-13, 1-(2-morpholinoethyl)-3-(4-(3-(piperidin-1-yl)cyclobutoxy)phenyl)urea] | -1.47 | 99.6 | 99.8
13 | O=C(NCCN1CCCCC1)Nc1ccc(OC2CC(N3CCCCC3)C2)cc1 (centres unmarked) [BIOS-B-15, 1-(4-(3-(piperidin-1-yl)cyclobutoxy)phenyl)-3-(2-(piperidin-1-yl)ethyl)urea] | -0.12 | 99 | 100
14 | O=C(CN1CCOCC1)Nc1ccc(OC2CCN(C3CCC3)CC2)cc1 [SUVN-G3031, Samelisant, reference compound] |  | 57.8 | 85.8
